“Also recorded” adds a separate entry of the source.
Columns and labels:
[1] = tested on: antibody core fucosylation; experiment: Inhibition of antibody core fucosylation by fucose analogs; format: cell-based
From the text: Methods of determining whether a fucose analog is capable of having an effect on antibody core fucosylation is provided in WO 2012/019165.

E-selectin [2] = experiment: Adhesion of LS174T cells to immobilized E-selectin; format: cell-based; conditions: cells cultured with 100 μM for 10 days; adhesion at 4° C.
Method: LS174T cells (ATCC) were cultured in MEM-Eagle with 10% FBS with or without 100 μM 2-fluorofucose for 10 days. For adhesion to purified E-selectin, non-tissue culture treated 96-well clear bottom black culture plates were coated with E-selectin-Fc chimera (5 μg/mL, PBS) and controls with 3% BSA/PBS, 2 hr at 37° C., then overnight at 4° C. Wells were washed two times with PBS and blocked with 3% BSA/PBS (2 hr, room temperature). LS174T cells were harvested and washed with PBS 2 times, labeled with 5 μM Calcein-AM in serum-free medium (15 min), and washed with DBPS two times. Cells in DPBS (100 μL) of were added to each well and the plate was kept at 4° C. for 2 hr. Plates were read at 480 nm excitation and 520 nm emission (total cell reading) and then washed with DPBS four times, followed by fluorescent analysis.

activated HUVEC cells = experiment: Adhesion of LS174T cells to TNFα-activated HUVEC cells; format: cell-based; conditions: cells cultured with 100 μM for 10 days; adhesion at 4° C.
Method: For adhesion to activated HUVEC cells, non-tissue culture treated 96-well clear bottom black culture plates were coated with attachment factor (100 μL/well), 30 min at room temperature. Wells were aspirated and HUVECs were added to half of the wells (40,000 cells/200 μL cell culture medium) while 3% BSA/PBS was added to the remaining control wells (100 μL) and the plate was incubated overnight at 37° C., 5% CO2. The confluent HUVEC cells were then treated with TNFα (20 ng/mL in PBS) for 4 hr at 37° C. Meanwhile tumor cells were labeled with Calcein-AM as described. The wells of the 96-well plate were all aspirated and seeded with 2-fluorofucose-treated or untreated labeled LS174T cells (500000 cells/well) and the plate was kept at 4° C. for 2 hr. Plates were read at 480 nm excitation and 520 nm emission (total cell reading) and then washed with DPBS four times, followed by fluorescent analysis. (see FIG. 4; The numeral 1 refers to 2-fluorofucose).

P-selectin = P-selectin binding to neutrophils from treated mice (flow cytometry); format: in vivo, Balb/c mice; conditions: 10 or 100 mM in drinking water, day 21
Method: (§1) Female Balb/c mice were given oral 2-fluorofucose in their drinking water (10 mM, 100 mM, n=3/group) or left untreated. Mice remained on the 2-fluorofucose-containing water through day 21 when blood was collected. Pre-dose bleeds were collected for baseline comparison. Total white cells/μL blood were determined by hemacytometer using Turk's solution (0.01% gentian violet in 3% acetic acid) to exclude red blood cells. RBCs were eliminated from the remainder of the blood by osmotic lysis for flow cytometric analysis. Cells were incubated with anti-Gr-1-FITC antibodies (BD Biosciences) to identify neutrophils, and a recombinant P-selectin-human Fc fusion protein (R&D Systems) or a recombinant E-selectin-human Fc fusion protein. Cells were washed and then incubated with a PE-labeled goat anti-human IgG-Fc secondary antibody (Jackson Immunoresearch) to detect bound P-selectin or E-selectin. Samples were collected on a FACSCalibur flow cytometer and analyzed using CellQuest software. The percentage of Gr-1+ cells was determined and absolute number of neutrophils was calculated using the total white cell number from the hemacytometer count. In addition, flow samples were gated for Gr-1+ cells to assess P-selectin or E-selectin binding to neutrophils by histogram analysis. The geometric mean of the P-selectin or E-selectin fluorescent signal was determined from the histogram. […]

E-selectin [3] = experiment: E-selectin binding to neutrophils from treated mice (flow cytometry); format: in vivo, Balb/c mice; conditions: 10 or 100 mM in drinking water, day 21
Method: as §1

blood neutrophils = experiment: Blood neutrophil counts in treated mice; format: in vivo, Balb/c mice; conditions: 10 or 100 mM in drinking water, day 21
Method: as §1

white blood cells = experiment: White blood cell counts in sickle cell mice; format: in vivo, NY1DD sickle cell mice; conditions: 7 days
Method: (§2) NY1DD sickle cell mice were given plain water or 20 or 100 mM 2-fluorofucose in their drinking water ad libitum for 7 days. The treatment and control group had four mice per treatment group. On day 7, the mice were sacrificed with CO2. An EDTA blood sample was collected from the heart and the liver was removed and frozen in liquid nitrogen. Total white blood cell counts and differentials were performed by manual counting using a hemocytometer and Wright-stained blood smears, respectively. Nuclear extracts were prepared from nuclei isolated from liver homogenates. Western blots of the nuclear extracts were immunostained with antibodies to NF-κB phospho-p65 a marker of NF-κB activation.

NF-κB phospho-p65 = experiment: Western blot of NF-κB phospho-p65 in liver nuclear extracts of sickle cell mice; format: in vivo, NY1DD sickle cell mice; conditions: 7 days
Method: as §2

NY1DD sickle cell mice = experiment: Hemoglobin-induced vascular stasis in dorsal skin fold chamber venules; format: in vivo; conditions: 20 mM in drinking water 7 days
Method: NY1DD sickle cell mice were given plain water or 20 or 100 mM 2-fluorofucose in their drinking water ad libitum for 7 days. On day 4, dorsal skin fold chambers were implanted onto the mice (n=4). On day 7, flowing venules in the dorsal skin-fold chamber window were selected and mapped using intravital microscopy. Thereafter, the mice were infused via the tail vein with human stroma-free hemoglobin (0.32 μmols heme/kg), a known inducer of vascular stasis in SCD mice. At 1 and 4 hours after infusion the same venules were re-examined and the percentage of vessels that had become static (no flow) was recorded. A control group of NY1DD mice (n=3) with implanted dorsal skin-fold chambers was given water to drink and injected intraperitoneally with hemin (40 μmols/kg×3 days) a known inhibitor of vascular stasis

Question: For C[C@H](O)[C@@H](O)[C@@H](O)[C@H](F)C=O [2-fluorofucose, 2-deoxy-2-fluorofucose], which inhibition at 50 µM ([1]; Table 2, 50 μM analog, read-out: Inhibition at 50 μM) is on record?
Answer: > 80%

Question: And the inhibition at 1000 µM ([1]; Table 2, 1 mM analog)?
Answer: > 80%

Question: And the “adhesion of LS174T cells to immobilized E-selectin” value (E-selectin [2])?
Answer: decreased adhesion; also recorded: diminished adhesion to selectins

Question: What about the “adhesion of LS174T cells to HUVEC cells activated with TNFα” value (activated HUVEC cells) of the same compound?
Answer: decreased adhesion

Question: And the “P-selectin binding to neutrophils” value (P-selectin)?
Answer: dimished and loss

Question: What about the “E-selectin binding to neutrophils” value (E-selectin [3]) of the same compound?
Answer: loss

Question: And the blood neutrophil counts (blood neutrophils)?
Answer: significantly increased

Question: And the “White blood cells counts (mean+SD)” value (white blood cells; 20 mM in drinking water)?
Answer: 22.1+5.2 K/μL

Question: And the “White blood cells counts (mean+SD)” value (white blood cells; 100 mM in drinking water)?
Answer: 34.2+7.2 K/μL

Question: What about the “Nuclear NF-κB phospho-p65 in liver” value (NF-κB phospho-p65; 20 mM in drinking water) of the same compound?
Answer: partially diminished

Question: And the “Nuclear NF-κB phospho-p65 in liver” value (NF-κB phospho-p65; 100 mM in drinking water)?
Answer: markedly decreased

Question: And the “percent static venules (vascular stasis)” value (NY1DD sickle cell mice; 1 hour after hemoglobin infusion)?
Answer: partially inhibited stasis; also recorded: partially diminished

Question: What about the “percent static venules (vascular stasis)” value (NY1DD sickle cell mice; 4 hours after hemoglobin infusion) of the same compound?
Answer: partially inhibited stasis; also recorded: partially diminished

Source: patent US10350228B2, “Treatment of sickle cell disease and inflammatory conditions” (Seattle Genetics, Inc., priority 2012, dated 2019)
